{
  "source": "paper PMC11299021",
  "about": "“Machine learning-assisted substrate binding pocket engineering based on structural information” (Briefings in Bioinformatics, 2024)",
  "target": "T1, KvAP (Klebsiella variicola acid phosphatase) (Klebsiella variicola, UniProt B5XS64)",
  "T1 construct": "gene KPK_3238; synthetic gene in pET-22b (NdeI/BlpI), E. coli BL21(DE3); His-Trap and Superdex 75 purified",
  "T1 sequence (B5XS64 20-248)": "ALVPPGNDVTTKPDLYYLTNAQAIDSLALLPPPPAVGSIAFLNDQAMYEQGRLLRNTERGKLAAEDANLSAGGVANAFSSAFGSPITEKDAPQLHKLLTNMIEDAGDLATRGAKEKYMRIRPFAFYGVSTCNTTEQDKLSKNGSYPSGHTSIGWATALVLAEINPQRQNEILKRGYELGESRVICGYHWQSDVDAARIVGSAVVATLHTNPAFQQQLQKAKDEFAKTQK",
  "assay": "p-nitrophenol release at […] nm (specific activity)",
  "format": "biochemical",
  "conditions": "200 mM p-NPP disodium salt, 50 mM acetate pH 5.0, 37 °C, 20 min",
  "data": [
    {"compound": "O=[N+]([O-])c1ccc(OP(=O)(O)O)cc1", "note": "[p-NPP]", "values": [
      {"measurement": "p-nitrophenol release at 405 nm (specific activity)", "result": "The purified enzyme was used for measuring its activity against nitrophenyl phosphate (p-NPP)"}
    ]}
  ]
}
